Test system: mice suffering from NEC
Test: Treatment of necrotizing enterocolitis (NEC) induced in mice by a 5 day protocol of formula (gavage) feeding and hypoxia
Assay type: in vivo, mice (C57BL/6)
Protocol: Ten day-old breastfed SERT knockout mice, TPH1 knockout mice and wildtype littermate mice (C57BL/6) were subjected to a 5 day protocol of formula (gavage) feeding and hypoxia. This protocol reproducibly induces NEC in mice. Weights of all groups were monitored daily and cytokines were analyzed in the distal ileum at day 5. This experiment was then repeated using two groups of mice that received 100 mg/kg or 200 mg/kg of (2S)-ethyl 2-amino-3-(4-(2-amino-6-(2,2,2-trifluoro-1-(3′-fluoro-[1,1′-biphenyl]-4-yl)ethoxy)pyrimidin-4-yl)phenyl)propanoate (LP-920540), and a control group that received vehicle.

For `CCOC(=O)[C@@H](N)Cc1ccc(-c2cc(OC(c3ccc(-c4cccc(F)c4)cc3)C(F)(F)F)nc(N)n2)cc1` (stereo partly drawn) [LP-920540, (2S)-ethyl 2-amino-3-(4-(2-amino-6-(2,2,2-trifluoro-1-(3′-fluoro-[1,1′-biphenyl]-4-yl)ethoxy)pyrimidin-4-yl)phenyl)propanoate], the “weight loss versus vehicle-treated animals (FIG. 1)” value (100 or 200 mg/kg, five days of the experiment) was “lost significantly less weight”, the “mortality (FIG. 2)” value (100 or 200 mg/kg, vehicle treated animals 50%) was 5-10% and the “levels of transcripts encoding IL-6 versus vehicle-treated mice” value (distal ileum at day 5) was “significantly less upregulated”. For the same molecule, the “levels of transcripts encoding IL-18 versus vehicle-treated mice” value (distal ileum at day 5) was “significantly less upregulated”.

Reference: US20130303763A1, “METHODS AND COMPOSITIONS FOR THE TREATMENT OF NECROTIZING ENTEROCOLITIS” (priority 2012, published 2013)
